Numbers after ± are expanded uncertainties.
Experiments:
[1] = Crystal; DTA
[2] = Molar enthalpy of transition or fusion; details: Crystal; DSC

| Normal melting temperature [1] | Molar enthalpy of transition or fusion [2] | SMILES |
| --- | --- | --- |
| 137.56 ± 0.5 °C | 7.22 ± 0.206 kcal/mol | COC(=O)C=Cc1ccc(O)cc1 [2-propenoic acid, 3-(4-hydroxyphenyl)-, methyl ester] |
| 88.64 ± 0.5 °C | 7.14 ± 0.203 kcal/mol | COC(=O)/C=C/c1cc(OC)c(O)c(OC)c1 [3,5-dimethoxy-4-hydroxy cinnamic acid methyl ester] |
| 62.56 ± 0.5 °C | 6.17 ± 0.179 kcal/mol | COC(=O)C=Cc1ccc(O)c(OC)c1 [methyl 3-(4-hydroxy-3-methoxyphenyl)-2-propenoate] |
